According to patent US20110237538A1, “TREATMENT OF LYSOSOMAL STORAGE DISORDERS AND OTHER PROTEOSTATIC DISEASES” (SUMMIT CORPORATION PLC, priority 2008, published 2011):

target: T1, wild type (wt) lysosomal alpha-glucosidase (Homo sapiens, UniProt P10253); assay: alpha-glucosidase activity assay in HL60 lysate (4MU-α-D-glc); assay type: biochemical; conditions: at a concentration of 100 uM, 0.5 mM 4MU-α-D-glc, pH 4.5;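 also: fluorometric rate of 4MU product release read at 360 nm excitation and 450 nm emission, reactions run at 37 °C in citric phosphate buffer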
T1 construct: The lysates were used as a source for wild type (wt) lysosomal alpha-glucosidase; endogenous in cells; host or cells: HL60 (ECACC No. 98070106) lysate

| Structure (SMILES) | inhibition at 100 µM [%] |
| --- | --- |
| C[C@@H]1CC[C@@H]2[C@H](O)[C@H](O)[C@@H](CO)N12 [Compound 150, (1S,2R,3R,5R,7aR)-3-(hydroxymethyl)-5-methylhexahydro-1H-pyrrolizine-1,2-diol] | > 50 |
| OC[C@@H]1[C@@H](O)[C@H](O)[C@@H](O)CN1Cc1ccccc1 [Compound 510, (2R,3R,4R,5S)-1-benzyl-2-(hydroxymethyl)piperidine-3,4,5-triol] | > 50 |
| CCCCN1C[C@H](O)[C@H](O)[C@@H]1[C@@H](O)[C@H](O)[C@H](O)CO [Compound 531, (1R,2S,3R)-1-((2R,3R,4S)-1butyl-3,4-dihydroxypyrrolidin-2-yl)butane-1,2,3,4-tetraol] | > 50 |
| C[C@@]1(CO)NC[C@H](O)[C@H]1O [Compound 501, (2S,3S,4S)-2-(hydroxymethyl)-2-methylpyrrolidine-3,4-diol] | > 50 |
| OC[C@H]1[C@H](O)[C@@H](O)CN1Cc1ccccc1 [Compound 500, (2S,3S,4S)-1-benzyl-2-(hydroxymethyl)pyrrolidine-3,4-diol] | > 50 |
| OC[C@@H]1[C@@H](O)[C@H](O)[C@@H](CO)N1Cc1ccc(-c2ccccc2)cc1 [Compound 558, (2R,3R,4R,5R)-1-(biphenyl-4-ylmethyl)-2,5-bis(hydroxymethyl)pyrrolidine-3,4-diol] | > 50 |
| OC[C@@H](O)[C@@H]1NC[C@](O)(CO)[C@H]1O [Compound 179, (2S,3S,4S)-2-((S)-1,2-dihydroxyethyl)-4-(hydroxymethyl)pyrrolidine-3,4-diol] | > 50 |
| OC[C@@H]1[C@@H](O)[C@H](O)[C@H]2[C@H](O)[C@@H](O)CN21 [Compound 137, (1R,2R,3R,6S,7S,7aR)-3-(hydroxymethyl)hexahydro-1H-pyrrolizine-1,2,6,7-tetraol] | > 50 |
| O[C@H]1[C@H](O)[C@@H](O)CN2C[C@H](O)[C@@H](O)[C@H]12 [Compound 352, (1S,2S,6S,7R,8R,8aR)-octahydroindolizine-1,2,6,7,8-pentaol] | > 50 |
| CCCCN1CCC[C@@H](CO)C1 [Compound 741, (R)-(1-butylpiperidin-3-yl)methanol] | > 50 |
| C[N+]1(C)C[C@@H](O)[C@H](O)[C@H]1C(=O)[O-] [Compound 80, (2S,3R,4R)-3,4-dihydroxy-1,1-dimethylpyrrolidinium-2-carboxylate] | > 50 |

Continued, values first:

| inhibition at 100 µM [%] | Structure (SMILES) |
| --- | --- |
| > 50 | OC[C@@H]1[C@@H](O)[C@H](O)[C@@H](O)CN1CCN1CCOCC1 [Compound 509, (2R,3R,4R,5S)-2-(hydroxymethyl)-1-(2-morpholinoethyl)piperidine-3,4,5-triol] |
| > 50 | C[C@H]1NC[C@H](O)[C@@H](O)[C@@H]1O [Compound 388, (2R,3R,4R,5S)-2-methylpiperidine-3,4,5-triol] |
| > 50 | CCCCN1C[C@H](O)[C@@H](O)[C@H](O)[C@H]1CO [Compound 118, (2R,3R,4R,5S)-1-butyl-2-(hydroxymethyl)piperidine-3,4,5-triol] |
| > 50 | C[C@@H]1N[C@@H](CO)[C@H](O)[C@H]1O [Compound 300, (2S,3S,4S,5S)-2-(hydroxymethyl)-5-methylpyrrolidine-3,4-diol] |
| > 50 | OCC1OC(O[C@H]2CN[C@H](CO)[C@@H](O)[C@@H]2O)C(O)C(O)C1O (stereo partly drawn) [Compound 121, 2-((3S,4S,5R,6R)-4,5-dihydroxy-6-(hydroxymethyl)piperidin-3-yloxy)-6-(hydroxymethyl)tetrahydro-2H-pyran-3,4,5-triol] |
| > 50 | OC[C@@H]1N[C@@H](CO)[C@H](O)[C@H]1O [Compound 729, (2S,3S,4S,5S)-2,5-bis(hydroxymethyl)pyrrolidine-3,4-diol] |
| > 50 | CC[C@@H]1N[C@@H](CO)[C@H](O)[C@@H](O)[C@@H]1O [Compound 23, (2S,3R,4S,5S,6S)-2-ethyl-6-(hydroxymethyl)piperidine-3,4,5-triol] |
| > 50 | OC[C@H]1NC[C@H](O)[C@@H](O)[C@@H]1O [Compound 193, (2R,3R,4R,5S)-2-(hydroxymethyl)piperidine-3,4,5-triol] |
| > 50 | OCC1OC(OC[C@H]2NC[C@H](O)[C@@H](O)[C@@H]2O)C(O)C(O)C1O (stereo partly drawn) [Compound 78, (2R,3R,4R,5S)-2-((3,4,5-trihydroxy-6-(hydroxymethyl)tetrahydro-2H-pyran-2-yloxy)methyl)piperidine-3,4,5-triol] |
| > 50 | CCCC(=O)O[C@H]1CN2CC[C@H](O)C2[C@@H](O)[C@@H]1O (stereo partly drawn) [Compound 46, (1S,6S,7S,8R)-1,7,8-trihydroxyoctahydroindolizin-6-yl butyrate] |
| > 50 | CCCC[C@@H]1N[C@@H](CO)[C@H](O)[C@H]1O [Compound 728, (2S,3S,4S,5S)-2-butyl-5-(hydroxymethyl)pyrrolidine-3,4-diol] |
| > 50 | O=C(O)CN1C[C@H](O)[C@@H](O)[C@H](O)[C@H]1CO [Compound 214, 2-((2R,3R,4R,5S)-3,4,5-trihydroxy-2-(hydroxymethyl)piperidin-1-yl)acetic acid] |
| > 50 | OCC1OC(O[C@H]2CN3C[C@H](O)[C@@H](O)[C@H](O)[C@H]3[C@H]2O)C(O)C(O)C1O (stereo partly drawn) [Compound 41, (1R,2S,6S,7R,8R,8aS)-2-(3,4,5-trihydroxy-6-(hydroxymethyl)tetrahydro-2H-pyran-2-yloxy)octahydroindolizine-1,6,7,8-tetraol] |
| > 50 | CN1[C@H](CO)[C@@H](O)[C@H](O)[C@H]1CO [Compound 515, (2R,3R,4R,5R)-2,5-bis(hydroxymethyl)-1-methylpyrrolidine-3,4-diol] |
| > 50 | CCCC[C@H]1N[C@H](CO)[C@@H](O)[C@@H](O)[C@@H]1O [Compound 488, (2R,3R,4S,5R,6R)-2-butyl-6-(hydroxymethyl)piperidine-3,4,5-triol] |
| > 50 | OC[C@@H]1NC[C@@H](O)[C@H](O)[C@H]1O [Compound 221, (2S,3S,4S,5R)-2-(hydroxymethyl)piperidine-3,4,5-triol] |
| > 50 | OC[C@@H]1NC[C@](O)(CO)[C@H]1O [Compound 202, (2S,3S,4S)-2,4-bis(hydroxymethyl)pyrrolidine-3,4-diol] |
| > 50 | OCCCCN1C[C@H](O)[C@@H](O)[C@H](O)[C@H]1CO [Compound 276, (2R,3R,4R,5S)-1-(4-hydroxybutyl)-2-(hydroxymethyl)piperidine-3,4,5-triol] |
| > 50 | C[C@H]1N[C@H](CO)[C@@H](O)[C@H](O)[C@H]1O [Compound 51, (2R,3R,4R,5S,6R)-2-(hydroxymethyl)-6-methylpiperidine-3,4,5-triol] |
| > 50 | O=C1N[C@H](CO)[C@H](O)[C@@H](O)[C@@H]1O [Compound 446, (3S,4R,5S,6R)-3,4,5-trihydroxy-6-(hydroxymethyl)piperidin-2-one] |
| > 50 | CC[C@@H]1N[C@@H](CO)[C@H](O)[C@H]1O [Compound 732, (2S,3S,4S,5S)-2-ethyl-5-(hydroxymethyl)pyrrolidine-3,4-diol] |
| > 50 | COCCOCCN1C[C@H](O)[C@@H](O)[C@H](O)[C@H]1CO [Compound 725, (2R,3R,4R,5S)-2-(hydroxymethyl)-1-(2-(2-methoxyethoxy)ethyl)piperidine-3,4,5-triol] |
| > 50 | OCC1OC(O[C@H]2[C@H](O)[C@@H](CO)N[C@@H]2CO)C(O)C(O)C1O (stereo partly drawn) [Compound 79, 2-((2R,3R,4R,5R)-4-hydroxy-2,5-bis(hydroxymethyl)pyrrolidin-3-yloxy)-6-(hydroxymethyl)tetrahydro-2H-pyran-3,4,5-triol] |

target: T2, wild type (wt) beta-glucocerebrosidase (Homo sapiens, UniProt P04062); assay: beta-glucocerebrosidase activity assay in HL60 lysate (4MU-β-D-glc); assay type: biochemical; conditions: at a concentration of 100 μM, 0.5 mM 4MU-β-D-glc;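 also: fluorometric read-out of 4MU liberated from the substrate (ex 360 nm, em 450 nm) after 37 °C incubation, reaction stopped with sodium carbonate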
T2 construct: The lysates were used as a source for wild type (wt) beta-glucocerebrosidase; endogenous in cells; host or cells: HL60 (ECACC No. 98070106) lysate
T2 sequence (P04062 40-536): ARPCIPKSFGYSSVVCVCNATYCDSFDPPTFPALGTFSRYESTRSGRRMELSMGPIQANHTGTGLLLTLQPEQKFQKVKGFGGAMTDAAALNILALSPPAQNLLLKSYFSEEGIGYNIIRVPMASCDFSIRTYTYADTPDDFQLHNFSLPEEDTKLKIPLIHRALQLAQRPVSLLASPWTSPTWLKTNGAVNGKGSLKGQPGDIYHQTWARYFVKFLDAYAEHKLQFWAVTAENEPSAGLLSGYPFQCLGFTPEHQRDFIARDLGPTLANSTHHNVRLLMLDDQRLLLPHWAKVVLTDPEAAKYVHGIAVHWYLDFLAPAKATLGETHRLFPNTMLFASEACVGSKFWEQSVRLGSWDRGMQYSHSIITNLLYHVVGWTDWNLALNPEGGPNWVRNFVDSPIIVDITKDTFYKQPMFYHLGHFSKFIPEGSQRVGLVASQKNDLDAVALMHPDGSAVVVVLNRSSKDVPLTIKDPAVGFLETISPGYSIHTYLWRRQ

| Structure (SMILES) | inhibition at 100 µM [%] |
| --- | --- |
| O=C(NC[C@H]1[C@@H](O)[C@@H](O)CN1Cc1ccc(-c2ccccc2)cc1)c1ccc(-c2ccccc2)cc1 [Compound 701, N-(((2S,3R,4S)-1-(biphenyl-4-ylmethyl)-3,4-dihydroxypyrrolidin-2-yl)methyl)biphenyl-4-carboxamide] | > 50 |
| O[C@@H]1[C@@H](O)[C@H](O)[C@]2(O)C[C@@H](O)[C@H]1N2 [Compound 33, (1R,2S,3R,4S,5R,6R)-8-azabicyclo[3.2.1]octane-1,2,3,4,6-pentaol] | > 50 |
| OC[C@@H]1CNC[C@@H](O)[C@H]1O [Compound 219, (3R,4S,5S)-5-(hydroxymethyl)piperidine-3,4-diol] | > 50 |
| OCCN1C[C@H](CO)[C@@H](O)[C@H](O)C1 [Compound 420, (3R,4R,5R)-1-(2-hydroxyethyl)-5-(hydroxymethyl)piperidine-3,4-diol] | > 50 |
| O=C(O)CN1C[C@H](CO)[C@@H](O)[C@H](O)C1 [Compound 450, 2-((3R,4R,5R)-3,4-dihydroxy-5-(hydroxymethyl)piperidin-1-yl)acetic acid] | > 50 |
| O[C@H]1[C@H](O)[C@H](O)CN(CCCCCOCC23CC4CC(CC(C4)C2)C3)C[C@H]1O [Compound 766, (3R,4R,5R,6R)-1-(5-(adamantan-1-yl-methoxy)-pentyl)azepane-3,4,5,6-tetraol] | > 50 |
